Where two headings read alike, the source gives them in different places.
Experiments:
Experiment in all cases: Kinase selectivity, P33-radiolabeled assay
Assay type in all cases: biochemical
IGF1R = molecular target: T1, IGF1R (Homo sapiens, UniProt P08069)
T1 construct: purchased Reaction Biology Corp
Method: (§1) The compound was tested at a single dose in duplicate at 10 μM. Reactions were carried out at 10 μM ATP. Data are reported as % enzyme activity (relative to DMSO controls). The full data set is shown in the Supplementary Table I.

ULK2 = molecular target: T2, ULK2 (Homo sapiens, UniProt Q8IYT8); conditions: 10 μM ATP
T2 construct: purchased Reaction Biology Corp
T2 sequence (Q8IYT8 1-1036): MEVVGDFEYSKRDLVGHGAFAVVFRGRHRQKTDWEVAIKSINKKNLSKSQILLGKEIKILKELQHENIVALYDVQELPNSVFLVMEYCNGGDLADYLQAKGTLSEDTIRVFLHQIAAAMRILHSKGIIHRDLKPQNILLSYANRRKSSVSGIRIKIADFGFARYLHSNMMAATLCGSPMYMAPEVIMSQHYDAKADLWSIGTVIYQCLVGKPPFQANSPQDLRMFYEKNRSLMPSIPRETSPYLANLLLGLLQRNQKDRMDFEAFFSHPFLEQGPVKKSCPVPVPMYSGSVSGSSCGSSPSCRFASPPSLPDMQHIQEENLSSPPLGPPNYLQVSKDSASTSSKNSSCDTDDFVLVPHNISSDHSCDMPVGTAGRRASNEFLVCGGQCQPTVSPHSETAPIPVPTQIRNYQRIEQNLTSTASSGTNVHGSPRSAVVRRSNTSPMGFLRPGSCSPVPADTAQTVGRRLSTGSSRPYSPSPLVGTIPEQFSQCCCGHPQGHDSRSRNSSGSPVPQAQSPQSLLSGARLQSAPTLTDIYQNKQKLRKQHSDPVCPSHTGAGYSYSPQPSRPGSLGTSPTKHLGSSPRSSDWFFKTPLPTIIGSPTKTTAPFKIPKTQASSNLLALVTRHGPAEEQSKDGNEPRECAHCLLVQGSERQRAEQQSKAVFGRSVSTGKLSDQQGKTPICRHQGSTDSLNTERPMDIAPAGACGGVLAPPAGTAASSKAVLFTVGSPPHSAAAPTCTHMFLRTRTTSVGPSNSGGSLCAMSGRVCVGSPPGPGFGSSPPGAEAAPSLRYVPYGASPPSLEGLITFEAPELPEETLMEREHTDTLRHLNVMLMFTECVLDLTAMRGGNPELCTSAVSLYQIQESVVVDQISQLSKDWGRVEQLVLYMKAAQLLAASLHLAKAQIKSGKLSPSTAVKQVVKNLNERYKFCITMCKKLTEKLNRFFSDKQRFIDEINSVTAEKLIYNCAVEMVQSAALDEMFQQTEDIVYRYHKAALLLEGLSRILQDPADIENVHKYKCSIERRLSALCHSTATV
Method: as §1

TGFBR2 = molecular target: T3, TGFBR2 (Homo sapiens, UniProt P37173); conditions: 10 μM ATP
T3 construct: purchased Reaction Biology Corp
Method: as §1

ULK3 = molecular target: T4, ULK3 (Homo sapiens, UniProt Q6PHR2); conditions: 10 μM ATP
T4 construct: purchased Reaction Biology Corp
T4 sequence (Q6PHR2 1-472): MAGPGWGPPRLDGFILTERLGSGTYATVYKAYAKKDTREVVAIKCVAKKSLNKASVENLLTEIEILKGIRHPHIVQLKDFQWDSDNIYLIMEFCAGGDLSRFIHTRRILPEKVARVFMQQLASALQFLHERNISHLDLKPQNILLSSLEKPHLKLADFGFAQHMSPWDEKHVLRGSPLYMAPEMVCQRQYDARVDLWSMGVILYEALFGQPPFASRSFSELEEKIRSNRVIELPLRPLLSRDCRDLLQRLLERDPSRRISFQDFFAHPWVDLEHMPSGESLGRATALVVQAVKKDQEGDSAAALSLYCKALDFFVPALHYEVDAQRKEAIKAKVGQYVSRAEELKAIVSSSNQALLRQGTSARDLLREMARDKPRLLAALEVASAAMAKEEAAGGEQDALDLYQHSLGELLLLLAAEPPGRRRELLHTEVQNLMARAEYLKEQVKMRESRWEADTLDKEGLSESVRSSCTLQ
Method: as §1

IRAK4 = molecular target: T5, IRAK4 (Homo sapiens, UniProt Q9NWZ3); conditions: 10 μM ATP
T5 construct: purchased Reaction Biology Corp
T5 sequence (Q9NWZ3 1-460): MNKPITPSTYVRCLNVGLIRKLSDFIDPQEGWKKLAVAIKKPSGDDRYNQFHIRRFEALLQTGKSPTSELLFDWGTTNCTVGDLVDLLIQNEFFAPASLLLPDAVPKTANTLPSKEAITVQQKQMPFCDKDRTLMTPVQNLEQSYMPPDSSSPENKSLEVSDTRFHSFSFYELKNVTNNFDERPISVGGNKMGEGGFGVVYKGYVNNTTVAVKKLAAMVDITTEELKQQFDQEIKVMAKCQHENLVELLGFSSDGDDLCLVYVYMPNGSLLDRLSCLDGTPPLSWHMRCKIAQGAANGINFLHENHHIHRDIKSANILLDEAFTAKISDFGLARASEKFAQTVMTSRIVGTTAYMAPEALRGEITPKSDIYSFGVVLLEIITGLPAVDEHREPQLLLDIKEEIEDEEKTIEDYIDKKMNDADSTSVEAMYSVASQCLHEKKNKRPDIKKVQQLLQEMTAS
Method: as §1

CLK3 = molecular target: T6, CLK3 (Homo sapiens, UniProt P49761); conditions: 10 μM ATP
T6 construct: purchased Reaction Biology Corp
Method: as §1

[1] = read-out: % Enzyme Activity (relative to DMSO controls) Data 1
[2] = read-out: % Enzyme Activity (relative to DMSO controls) AVG
[3] = read-out: % Enzyme Activity (relative to DMSO controls) Data 2

T3 sequence (P37173 23-567): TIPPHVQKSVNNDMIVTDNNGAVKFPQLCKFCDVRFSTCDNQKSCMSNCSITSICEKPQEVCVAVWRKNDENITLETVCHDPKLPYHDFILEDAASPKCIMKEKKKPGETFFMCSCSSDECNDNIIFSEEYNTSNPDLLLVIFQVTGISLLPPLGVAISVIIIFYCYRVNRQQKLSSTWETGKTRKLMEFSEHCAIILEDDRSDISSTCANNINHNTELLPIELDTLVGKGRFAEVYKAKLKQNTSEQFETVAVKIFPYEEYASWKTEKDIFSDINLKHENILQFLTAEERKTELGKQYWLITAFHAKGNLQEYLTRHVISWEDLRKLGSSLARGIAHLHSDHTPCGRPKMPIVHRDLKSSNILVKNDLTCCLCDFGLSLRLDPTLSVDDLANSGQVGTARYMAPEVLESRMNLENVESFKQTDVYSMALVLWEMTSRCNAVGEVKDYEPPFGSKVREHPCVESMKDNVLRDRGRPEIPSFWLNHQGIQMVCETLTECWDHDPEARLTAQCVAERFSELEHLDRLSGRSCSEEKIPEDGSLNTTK
T6 sequence (P49761 whole entry): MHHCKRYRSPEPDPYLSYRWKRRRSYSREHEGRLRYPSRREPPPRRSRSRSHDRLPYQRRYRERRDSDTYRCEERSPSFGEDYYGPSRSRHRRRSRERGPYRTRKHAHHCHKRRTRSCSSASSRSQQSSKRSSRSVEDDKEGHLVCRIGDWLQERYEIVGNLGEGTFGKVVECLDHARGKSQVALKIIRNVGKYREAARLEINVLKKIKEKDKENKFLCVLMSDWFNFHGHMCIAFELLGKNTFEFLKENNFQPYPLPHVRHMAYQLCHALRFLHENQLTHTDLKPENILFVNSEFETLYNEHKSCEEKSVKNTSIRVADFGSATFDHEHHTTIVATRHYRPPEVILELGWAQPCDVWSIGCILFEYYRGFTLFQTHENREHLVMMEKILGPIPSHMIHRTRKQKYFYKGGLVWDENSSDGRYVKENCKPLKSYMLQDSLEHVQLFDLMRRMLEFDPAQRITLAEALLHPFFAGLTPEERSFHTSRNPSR
T1 sequence (P08069 31-1367): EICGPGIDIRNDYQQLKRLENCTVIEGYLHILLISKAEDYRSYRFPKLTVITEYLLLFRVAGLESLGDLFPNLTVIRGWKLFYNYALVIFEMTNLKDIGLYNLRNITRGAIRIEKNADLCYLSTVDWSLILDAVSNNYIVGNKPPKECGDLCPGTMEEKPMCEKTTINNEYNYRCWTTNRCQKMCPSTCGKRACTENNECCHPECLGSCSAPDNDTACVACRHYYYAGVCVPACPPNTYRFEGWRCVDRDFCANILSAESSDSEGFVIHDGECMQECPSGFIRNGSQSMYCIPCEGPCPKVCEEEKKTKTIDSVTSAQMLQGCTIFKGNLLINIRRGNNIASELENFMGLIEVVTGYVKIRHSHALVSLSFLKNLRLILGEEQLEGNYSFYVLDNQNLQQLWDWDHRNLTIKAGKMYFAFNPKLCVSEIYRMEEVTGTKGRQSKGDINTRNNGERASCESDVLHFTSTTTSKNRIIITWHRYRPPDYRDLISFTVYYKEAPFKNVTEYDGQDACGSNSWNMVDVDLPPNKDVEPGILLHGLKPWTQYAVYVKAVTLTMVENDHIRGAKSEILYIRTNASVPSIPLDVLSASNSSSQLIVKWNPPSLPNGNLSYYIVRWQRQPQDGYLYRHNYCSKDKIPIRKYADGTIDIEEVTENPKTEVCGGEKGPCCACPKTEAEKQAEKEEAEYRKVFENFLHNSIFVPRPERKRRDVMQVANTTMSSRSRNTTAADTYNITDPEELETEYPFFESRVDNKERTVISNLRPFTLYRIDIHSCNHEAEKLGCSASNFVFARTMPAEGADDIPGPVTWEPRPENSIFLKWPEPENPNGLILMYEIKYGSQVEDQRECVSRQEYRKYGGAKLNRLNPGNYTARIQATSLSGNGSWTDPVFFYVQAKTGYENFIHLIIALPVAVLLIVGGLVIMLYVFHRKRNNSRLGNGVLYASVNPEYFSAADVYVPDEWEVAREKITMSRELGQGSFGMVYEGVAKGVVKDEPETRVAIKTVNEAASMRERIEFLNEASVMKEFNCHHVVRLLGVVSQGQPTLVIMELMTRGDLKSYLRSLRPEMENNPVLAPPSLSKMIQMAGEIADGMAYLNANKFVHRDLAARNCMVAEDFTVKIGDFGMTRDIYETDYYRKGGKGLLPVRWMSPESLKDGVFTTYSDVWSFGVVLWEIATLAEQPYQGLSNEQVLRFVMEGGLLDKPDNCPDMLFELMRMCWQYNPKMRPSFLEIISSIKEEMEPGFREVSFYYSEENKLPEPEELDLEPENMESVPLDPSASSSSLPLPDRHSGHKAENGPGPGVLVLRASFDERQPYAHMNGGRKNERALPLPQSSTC

Which results are given for `CC(C)(C)C(=O)N1N=CC[C@H]1c1ccccc1` [GSK′963]?
remaining activity at 10 µM (IGF1R; 10 uM, 10 μM ATP, read-out: % Enzyme Activity (relative to DMSO controls) AVG): 103%; remaining activity at 10 µM (IGF1R; 10 uM, 10 μM ATP, read-out: % Enzyme Activity (relative to DMSO controls) Data 2): 104%; remaining activity at 10 µM (IGF1R; [1]): 101%; remaining activity at 10 µM (ULK2; [2]): 99.7%; remaining activity at 10 µM (ULK2; [1]): 99.8%; remaining activity at 10 µM (ULK2; [3]): 99.5%; remaining activity at 10 µM (TGFBR2; [2]): 116%; remaining activity at 10 µM (TGFBR2; [1]): 119%; remaining activity at 10 µM (TGFBR2; [3]): 114%; remaining activity at 10 µM (ULK3; [2]): 91.6%; remaining activity at 10 µM (ULK3; [1]): 92.2%; remaining activity at 10 µM (ULK3; [3]): 90.9%; remaining activity at 10 µM (IRAK4; [2]): 115%; remaining activity at 10 µM (IRAK4; [1]): 116%; remaining activity at 10 µM (IRAK4; [3]): 114%; remaining activity at 10 µM (CLK3; [2]): 107%; remaining activity at 10 µM (CLK3; [1]): 109%; remaining activity at 10 µM (CLK3; [3]): 105%

Source: paper PMC4979471 (Cell Death Discovery, 2015)
